Source: patent US20070043034A1, “Chlorine Ion Uptake Modulators and Uses Thereof” (priority 2005, published 2007)

Key:
hypoxia-induced seizures = assay: Hypoxia-induced seizures in P10 rats; assay type: in vivo, rat; conditions: hypoxia 15 min, i.p., Bumetanide 0.15 mg/kg 10 min prior, Phenobarbital 15 mg/kg 30 min prior, versus vehicle
Text: Litters of male Long-Evans hooded rats from Charles River Laboratories (Wilmington, Mass., USA) were used in this study. Each litter was divided into five treatment groups: no hypoxia control, hypoxia/DMSO in PBS, hypoxia/Bumetanide only, hypoxia/Phenobarbital only, and hypoxia/combination of Bumetanide and Phenobarbital. One to two litters were used for each run of the experiment, and each litter was housed together until the weaning age of P21.
Rats at P10 (˜18 to 22 grams) were exposed to global hypoxia for 15 minutes in an airtight chamber into which N2 gas was rapidly infused. The oxygen concentration was maintained at 7% for 8 minutes, 5% for 6 minutes, and 4% for 1 minute before termination of hypoxia, during which the animals were immediately removed from the chamber and exposed to room air. For each animal during hypoxia, a record of the total number of myoclonic seizures and the total number and length of time in seconds of tonic clonic seizures were kept. For analysis purposes, time lengths of each tonic clonic seizure for each animal were pooled to obtain total seizure time. […] The body temperature of all animals was maintained at 34-40° C. on a warming blanket; the temperatures of each animal were also recorded before and after submission to hypoxia. […]

KA-induced rat seizures = assay: Kainic acid (KA) induced seizures in rat pups, EEG recording in vivo; conditions: KA 2 mg/kg s.c.
Text: Kainic Acid (KA) is a commonly used agent for creating an in vivo neonatal-like seizure model in rats for study. It is believed that this seizure model closely parallels human neonatal seizure disorders. KA, a glutamate receptor agonist, was used to induce neonatal-like seizures in postnatal (P) 7-12 day male Wistar rats. The rats were equipped with electrodes including recording and reference electrodes by standard means. There are many known methods for measuring parameters of seizures, in this example electrical signals were digitized using an analogue-to-digital converter for example a DigiData 1322A (Axon Instuments USA). The sampling interval can vary depending on the desired target interval. In this example, the sampling interval per signal was 200 […]s (5 kHz). For data analysis, several computer programs exist for capturing and analyzing these seizure parameters such as Clamp 9.2 (Axon Instruments, USA) and Origon 5.0 (Microcal Software, USA) used here. Interictal spikes were determined by typical means utilizing band-pass filtered raw data.
Many known methods exist for analyzing the power levels of different frequency components in a signal such as a signal recorded from a seizure episode. For example, power spectrum analysis can be performed after applying a Hamming window function. Unless otherwise indicated, power was calculated in 1-2 min time windows by integrating the root mean square value of the signal in frequency bands from 1 to 100 Hz (EEC band) and from 200 to 500 Hz (fast ripple band).
Pharmaceutical compositions of the present invention can be administered to seizure-induced rats to test the seizure modulatory properties of the pharmaceutical composition. In one exemplary method, the inhibition of NKCCl and its affect on seizures in rat pups was studied. Two days after implantation of recording electrodes, six P9-P10 rats received subcutaneous injection of KA (2 mg/kg) and six P9-10 control rats received subcutaneous 0.9% sodium chloride saline injections. 10-20 minutes after KA injection regular pattern of behavioral signs started, involving scratching-like movements of the hindpaws, loss of balance and turning on the side. Recurrent interictal and ictal electroencephalographic patterns occurred 20-80 minutes (61.2±10.4 min; mean±se) after KA injection in all rats from this experimental group (FIG. 4B). […] Interictal spikes usually occurred synchronously in the left and right hemispheres. Frequency of the interictal spikes was 1.43±0.06 Hz (n=23 seizures in 6 rats). Before transition to ictal patterns, interictal spikes were usually followed by fast ripple (100-500 Hz) and gamma-frequency oscillations (20-50 Hz). Tonic-clonic seizures were the most common type of seizures induced by KA in P9-10 rats. Ictal-tonic phase lasted 12.6±1.4 s (16 seizures in 5 rats). Population spikes of 18.7±1.2 Hz were characteristic of the tonic phase of KA-induced seizures (FIG. 4C). Tonic discharges were followed by clonic bursts (FIG. 4C). Large amplitude population spikes followed by 100-200 Hz ripples and 200-1200 ms gamma frequency after discharges characterized the clonic bursts. The mean duration of the clonic phase was 36.4±5 s (25 seizures in 6 rats). The ictal patterns were followed by postictal depression (FIG. 4 B-4C). During ictal EEG activity, motor activity consisted of scratching, jerky movements, turning on the side or on the back and frequent tail shaking. Five to ten recurrent seizures with an average interval 379±24.5 s were followed by periodic epileptiform discharges (PLEDs) (FIG. 4D).
In one exemplary experiment, a pharmaceutical composition of the present invention comprising bumetanide was compared to phenobarbital for effects on KA-induced rat seizures. Two days after implantation of recording electrodes, twenty-two P9-12 age-matched rats received subcutaneous injection with KA (2 mg/kg). […]

[1] = P9-12 rats, phenobarbital 25 mg/kg or bumetanide 0.1-0.2 mg/kg i.p.

CCCCNc1cc(C(=O)O)cc(S(N)(=O)=O)c1Oc1ccccc1 [bumetanide, 3-(aminosulfonyl)-5-(butylamino)-4-phenoxybenzoic acid]
average seizing time (hypoxia-induced seizures): did not significantly reduce | periodic epileptiform discharges (KA-induced rat seizures; bumetanide 0.1-0.2 mg/kg i.p.): occurred in all six rats | animals with recurrent ictal-clonic activity / EEG clonic seizures (KA-induced rat seizures; P9-12 rats, drug i.p. 10 min after KA (phenobarbital 25 mg/kg; bumetanide 0.1-0.2 mg/kg), 6 rats per group): 50% | duration of ictal-clonic phase (KA-induced rat seizures; [1]): 12.5 ± 1.1 s | duration of ictal-tonic phase (KA-induced rat seizures; [1]): 9 ± 1.9 s | frequency of interictal spikes (KA-induced rat seizures; [1]): 1.42 ± 0.07 Hz | mean duration of single ictal episode (seizure including interictal and ictal phases) (KA-induced rat seizures; [1]): 32 ± 3.9 s | mean interval between seizures (KA-induced rat seizures; [1]): 360.1 ± 68.6 s | rats with ictal-tonic pattern / tonic-clonic seizures (KA-induced rat seizures; [1]): 16.7% | increase of power of EEG activity in the 20 minute window following seizure onset (KA-induced rat seizures; compared to pre-ictal baseline, phenobarbital 25 mg/kg or bumetanide 0.1-0.2 mg/kg i.p., saline control 444.7±136.3%): 88.7±24.5%
